PubChem BioAssay (NCI)
Several values for one entry are separate records, joined by “and”; a condition that tells them apart may be missing. Equal values may be shown once.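 Five concentrations, 48 hours, 96-well plates. At the GI50, growth is halved. TGI denotes the concentration required for complete inhibition of growth.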

Tests used:
Assay in all cases: NCI anticancer screen, dose series, 48 h
EKVX NSCLC = system: EKVX NSCLC
HCT-116 colon = system: HCT-116 colon
U251 CNS = system: U251 CNS
SF-539 CNS = system: SF-539 CNS
NCI-H226 lung = system: NCI-H226 lung
OVCAR-4 ovarian = system: OVCAR-4 ovarian
SF-295 CNS = system: SF-295 CNS
RXF 393 renal = system: RXF 393 renal
BT-549 breast = system: BT-549 breast

**Q.** How did the TGI (EKVX NSCLC) turn out when CCOC(=O)/C(=C/c1cccc(C#N)c1)N(CC)CC was run?
**A.** Its TGI is over 100 µM.

**Q.** What about the TGI (HCT-116 colon) of the same compound?
**A.** Its TGI is over 100 µM.

**Q.** And the TGI (U251 CNS)?
**A.** The TGI was over 100 µM.

**Q.** What about the TGI (SF-539 CNS) of the same compound?
**A.** The TGI was over 100 µM.

**Q.** And the TGI (NCI-H226 lung)?
**A.** Its TGI is over 100 µM.

**Q.** What about the TGI (OVCAR-4 ovarian) of the same compound?
**A.** The TGI was over 100 µM.

**Q.** What about the TGI (SF-295 CNS) of the same compound?
**A.** Its TGI is over 100 µM.

**Q.** What does the source list for N#CC(C(=O)CCC(=O)Nc1cccc(C(F)(F)F)c1)c1ccc(Cl)cc1 (configuration not stated)?
**A.** TGI (EKVX NSCLC): > 100 µM; TGI (HCT-116 colon): > 100 µM; TGI (U251 CNS): > 100 µM; TGI (SF-539 CNS): > 100 µM; TGI (NCI-H226 lung): > 100 µM; TGI (OVCAR-4 ovarian): > 100 µM; TGI (SF-295 CNS): > 100 µM

**Q.** With COc1ccc2c(c1)C(C)Cc1c(ncnc1-n1cnc3cc(C)ccc31)N2C (configuration not stated) as the compound, how does the GI50 (RXF 393 renal) read?
**A.** Its GI50 is 0.0305 µM.

**Q.** What about the TGI (RXF 393 renal) of the same compound?
**A.** Its TGI is 25.3 µM.

**Q.** And the GI50 (EKVX NSCLC)?
**A.** Its GI50 is 0.25 µM.

**Q.** What about the TGI (EKVX NSCLC) of the same compound?
**A.** Its TGI is 23.2 µM.

**Q.** What about the GI50 (HCT-116 colon) of the same compound?
**A.** The GI50 was 0.0736 µM.

**Q.** And the TGI (HCT-116 colon)?
**A.** Its TGI is 14.9 µM.

**Q.** And the GI50 (U251 CNS)?
**A.** Its GI50 is 0.148 µM.

**Q.** And the TGI (U251 CNS)?
**A.** The TGI was 11.6 µM.

**Q.** What about the GI50 (BT-549 breast) of the same compound?
**A.** Its GI50 is 0.184 µM.

**Q.** And the TGI (BT-549 breast)?
**A.** The TGI was 7.12 µM.

**Q.** What about the GI50 (NCI-H226 lung) of the same compound?
**A.** The GI50 was 0.157 µM.

**Q.** What about the TGI (NCI-H226 lung) of the same compound?
**A.** Its TGI is 16.3 µM.

**Q.** And the GI50 (OVCAR-4 ovarian)?
**A.** The GI50 was 0.347 µM.

**Q.** What about the TGI (OVCAR-4 ovarian) of the same compound?
**A.** Its TGI is 33.7 µM.

**Q.** And the GI50 (SF-295 CNS)?
**A.** The GI50 was 0.0317 µM.

**Q.** And the TGI (SF-295 CNS)?
**A.** Its TGI is 11 µM.

**Q.** What does the source list for Oc1ccc(Br)cc1C=Nc1ccc(N=Cc2cc(Br)ccc2O)cc1?
**A.** TGI (RXF 393 renal): > 100 µM; TGI (EKVX NSCLC): > 100 µM; TGI (HCT-116 colon): > 100 µM; TGI (U251 CNS): > 100 µM; TGI (SF-539 CNS): > 100 µM; TGI (NCI-H226 lung): > 100 µM; TGI (OVCAR-4 ovarian): > 100 µM; TGI (SF-295 CNS): > 100 µM

**Q.** CCOc1ccccc1NC(=O)C(C#N)C1=C(Cl)C(=O)c2ccccc2C1=O (configuration not stated) was tested. Which TGI (RXF 393 renal) did it give?
**A.** Its TGI is 3.43 µM and 3.25 µM.

**Q.** What about the GI50 (EKVX NSCLC) of the same compound?
**A.** The GI50 was 2.86 µM.

**Q.** What about the TGI (EKVX NSCLC) of the same compound?
**A.** Its TGI is 2.83 µM and 5.82 µM.

**Q.** What about the TGI (HCT-116 colon) of the same compound?
**A.** Its TGI is 3.38 µM and 3.93 µM.

**Q.** What about the GI50 (U251 CNS) of the same compound?
**A.** The GI50 was 1.95 µM.

**Q.** What about the TGI (U251 CNS) of the same compound?
**A.** Its TGI is 3.14 µM and 3.82 µM.

**Q.** What about the TGI (SF-539 CNS) of the same compound?
**A.** Its TGI is 3.64 µM and 3.54 µM.

**Q.** What about the TGI (NCI-H226 lung) of the same compound?
**A.** The TGI was 4.49 µM and 19 µM.

**Q.** And the GI50 (OVCAR-4 ovarian)?
**A.** Its GI50 is 1.67 µM.

**Q.** And the TGI (OVCAR-4 ovarian)?
**A.** Its TGI is 3.42 µM and 3.04 µM.

**Q.** What about the TGI (SF-295 CNS) of the same compound?
**A.** Its TGI is 3.13 µM and 3.19 µM.

**Q.** What does the source list for CC1=C(C(=O)NNS(=O)(=O)c2ccc(C)cc2)CC(C(=O)NNS(=O)(=O)c2ccc(C)cc2)=C(C)N1?
**A.** TGI (RXF 393 renal): > 100 µM; TGI (EKVX NSCLC): > 100 µM; TGI (HCT-116 colon): > 100 µM; TGI (U251 CNS): > 100 µM; TGI (SF-539 CNS): > 100 µM; TGI (NCI-H226 lung): > 100 µM; TGI (OVCAR-4 ovarian): > 100 µM; TGI (SF-295 CNS): > 100 µM

**Q.** With CN(C)CCSc1nccc(-c2cc3ccccc3s2)n1 as the compound, how does the TGI (RXF 393 renal) read?
**A.** Its TGI is 56 µM.

**Q.** And the TGI (HCT-116 colon)?
**A.** The TGI was 50.9 µM.

**Q.** What about the TGI (U251 CNS) of the same compound?
**A.** The TGI was 57.1 µM.

**Q.** And the TGI (SF-539 CNS)?
**A.** Its TGI is 37.2 µM.

**Q.** And the TGI (NCI-H226 lung)?
**A.** Its TGI is 38 µM.

**Q.** And the TGI (OVCAR-4 ovarian)?
**A.** The TGI was 82.2 µM.

**Q.** What about the TGI (SF-295 CNS) of the same compound?
**A.** Its TGI is 31 µM.

**Q.** Which results are given for O=C(O)CSc1n[nH]c(Cc2ccccc2)n1?
**A.** TGI (RXF 393 renal): > 100 µM; TGI (EKVX NSCLC): > 100 µM; TGI (HCT-116 colon): > 100 µM; TGI (U251 CNS): > 100 µM; TGI (SF-539 CNS): > 100 µM; TGI (NCI-H226 lung): > 100 µM; TGI (OVCAR-4 ovarian): > 100 µM; TGI (SF-295 CNS): > 100 µM
